Results published in PMC5218480 (PLoS ONE, 2017).

Test system: MV-4-11 cells
Test: Gene expression microarray analysis (Affymetrix PrimeView) and GSEA
Type: cell-based, human
Parameters: RFU PODN (11730768_x_at) / Fold change /veh PODN (11730768_x_at) / RFU LINC00158 (11744669_a_at) / Fold change /veh LINC00158 (11744669_a_at) / RFU DUSP10 (11751237_a_at) / Fold change /veh DUSP10 (11751237_a_at) / RFU ID3 (11757404_x_at) / Fold change /veh ID3 (11757404_x_at) / RFU PLEKHG5 (11737974_s_at) / Fold change /veh PLEKHG5 (11737974_s_at) / RFU LRRC4B (11730491_at) / Fold change /veh LRRC4B (11730491_at) / RFU GIMAP4 (11747438_a_at) / Fold change /veh GIMAP4 (11747438_a_at) / RFU KRT8 (11758183_x_at) / Fold change /veh KRT8 (11758183_x_at) / RFU CNN1 (11734310_a_at) / Fold change /veh CNN1 (11734310_a_at) / RFU VPS37D (11726825_at) / Fold change /veh VPS37D (11726825_at) / RFU C10orf10 (11716522_x_at) / Fold change /veh C10orf10 (11716522_x_at) / RFU KIR2DL2 /// KIR2DL4 /// KIR2DL5A /// KIR2DL5B /// KIR2DS1 /// KIR2DS2 /// KIR2DS3 /// KIR2DS4 /// KIR3DL3 /// KIR3DL3 /// KIR3DS1 (11738374_at) / Fold change /veh KIR2DL2 /// KIR2DL4 /// KIR2DL5A /// KIR2DL5B /// KIR2DS1 /// KIR2DS2 /// KIR2DS3 /// KIR2DS4 /// KIR3DL3 /// KIR3DL3 /// KIR3DS1 (11738374_at) / RFU C1QL1 (11718748_at) / Fold change /veh C1QL1 (11718748_at) / RFU TMPRSS4 (11747572_a_at) / Fold change /veh TMPRSS4 (11747572_a_at) / RFU HAMP (11756126_x_at) / Fold change /veh HAMP (11756126_x_at) / RFU RNFT2 (11725882_a_at) / Fold change /veh RNFT2 (11725882_a_at) / RFU NR4A2 (11747474_a_at) / Fold change /veh NR4A2 (11747474_a_at) / RFU ABCC12 (11746883_a_at) / Fold change /veh ABCC12 (11746883_a_at) / RFU TMEM136 (11760407_x_at) / Fold change /veh TMEM136 (11760407_x_at) / RFU CLDN22 /// WWC2 (11732394_at) / Fold change /veh CLDN22 /// WWC2 (11732394_at) / RFU HLA-DPB1 (11760878_x_at) / Fold change /veh HLA-DPB1 (11760878_x_at) / RFU SPINT1 (11716480_a_at) / Fold change /veh SPINT1 (11716480_a_at) / RFU GAP43 (11754022_s_at) / Fold change /veh GAP43 (11754022_s_at) / RFU A4GNT (11735810_at) / Fold change /veh A4GNT (11735810_at) / RFU PRB3 (11715151_x_at) / Fold change /veh PRB3 (11715151_x_at) / RFU TUBB4B (11761932_at) / Fold change /veh TUBB4B (11761932_at) / RFU CAPN14 (11732068_a_at) / Fold change /veh CAPN14 (11732068_a_at) / RFU TMCC2 (11721928_a_at) / Fold change /veh TMCC2 (11721928_a_at) / RFU IRGQ (11745062_a_at) / Fold change /veh IRGQ (11745062_a_at) / RFU FAM174B (11720279_a_at) / Fold change /veh FAM174B (11720279_a_at) / RFU TMPRSS4 (11748680_a_at) / Fold change /veh TMPRSS4 (11748680_a_at) / RFU FAM212B (11763350_a_at) / Fold change /veh FAM212B (11763350_a_at) / RFU PLEKHG5 (11743358_a_at) / Fold change /veh PLEKHG5 (11743358_a_at) / RFU ZSCAN30 (11745921_a_at) / Fold change /veh ZSCAN30 (11745921_a_at) / RFU CMKLR1 (11741424_a_at) / Fold change /veh CMKLR1 (11741424_a_at) / RFU LOC101060620 /// MAPK8IP1 (11723275_at) / Fold change /veh LOC101060620 /// MAPK8IP1 (11723275_at) / RFU SPTSSB (11747773_x_at) / Fold change /veh SPTSSB (11747773_x_at) / RFU PRSS12 (11739890_at) / Fold change /veh PRSS12 (11739890_at) / RFU BIN1 (11741810_x_at) / Fold change /veh BIN1 (11741810_x_at) / RFU WNT11 (11732464_a_at) / Fold change /veh WNT11 (11732464_a_at) / RFU C10orf10 (11716521_a_at) / Fold change /veh C10orf10 (11716521_a_at) / RFU C5orf56 (11738089_at) / Fold change /veh C5orf56 (11738089_at) / RFU CYB561 (11721691_x_at) / Fold change /veh CYB561 (11721691_x_at) / RFU ANKRD19P (11752326_a_at) / Fold change /veh ANKRD19P (11752326_a_at) / RFU OR2T12 /// OR2T33 /// OR2T8 (11738714_s_at) / Fold change /veh OR2T12 /// OR2T33 /// OR2T8 (11738714_s_at) / RFU VCAN (11748164_a_at) / Fold change /veh VCAN (11748164_a_at) / RFU JSRP1 (11732532_at) / Fold change /veh JSRP1 (11732532_at) / RFU KRTAP10-11 (11738290_x_at) / Fold change /veh KRTAP10-11 (11738290_x_at) / RFU MYO3A (11730013_a_at) / Fold change /veh MYO3A (11730013_a_at) / RFU EBF3 (11725865_a_at) / Fold change /veh EBF3 (11725865_a_at) / RFU CAMK2N1 (11719241_x_at) / Fold change /veh CAMK2N1 (11719241_x_at) / RFU C5orf56 (11738088_a_at) / Fold change /veh C5orf56 (11738088_a_at) / RFU OLFML3 (11715873_a_at) / Fold change /veh OLFML3 (11715873_a_at) / RFU LOC100653217 /// NTM (11731650_a_at) / Fold change /veh LOC100653217 /// NTM (11731650_a_at) / RFU MAPK11 (11762145_a_at) / Fold change /veh MAPK11 (11762145_a_at) / RFU FIZ1 (11724087_x_at) / Fold change /veh FIZ1 (11724087_x_at) / RFU OASL (11726364_x_at) / Fold change /veh OASL (11726364_x_at) / RFU SOX15 (11748057_x_at) / Fold change /veh SOX15 (11748057_x_at) / RFU CD79A (11719716_a_at) / Fold change /veh CD79A (11719716_a_at) / RFU HIST1H1D (11736915_at) / Fold change /veh HIST1H1D (11736915_at) / RFU CASKIN2 (11723855_a_at) / Fold change /veh CASKIN2 (11723855_a_at) / RFU LOC730098 (11760151_x_at) / Fold change /veh LOC730098 (11760151_x_at) / RFU OR4N2 (11742367_at) / Fold change /veh OR4N2 (11742367_at) / RFU PRRT2 (11749266_a_at) / Fold change /veh PRRT2 (11749266_a_at) / RFU SNX32 (11753110_a_at) / Fold change /veh SNX32 (11753110_a_at) / RFU CDHR5 (11726645_a_at) / Fold change /veh CDHR5 (11726645_a_at) / RFU RCAN1 (11760418_a_at) / Fold change /veh RCAN1 (11760418_a_at) / RFU FAM167A (11723789_a_at) / Fold change /veh FAM167A (11723789_a_at) / RFU FAM26E (11764081_at) / Fold change /veh FAM26E (11764081_at) / RFU ISYNA1 (11749810_s_at) / Fold change /veh ISYNA1 (11749810_s_at) / RFU ACY1 (11761880_at) / Fold change /veh ACY1 (11761880_at) / RFU 11764098_at / Fold change /veh 11764098_at / RFU SAMD14 (11745864_x_at) / Fold change /veh SAMD14 (11745864_x_at) / RFU NPB (11741838_a_at) / Fold change /veh NPB (11741838_a_at) / RFU TMPRSS6 (11731388_a_at) / Fold change /veh TMPRSS6 (11731388_a_at) / RFU KRTAP10-2 (11738614_at) / Fold change /veh KRTAP10-2 (11738614_at) / RFU ARHGAP8 /// PRR5-ARHGAP8 (11727945_x_at) / Fold change /veh ARHGAP8 /// PRR5-ARHGAP8 (11727945_x_at) / RFU KRTAP5-7 /// NADSYN1 (11734609_at) / Fold change /veh KRTAP5-7 /// NADSYN1 (11734609_at) / RFU RASL12 (11751679_a_at) / Fold change /veh RASL12 (11751679_a_at) / RFU CDKN2B (11736163_a_at) / Fold change /veh CDKN2B (11736163_a_at) / RFU PRF1 (11729649_at) / Fold change /veh PRF1 (11729649_at) / RFU, ZNF638 /// ZNF638-IT1 / Fold change vs veh, ZNF638 /// ZNF638-IT1 / RFU, PANK3 / Fold change vs veh, PANK3 / RFU, SH3YL1 / Fold change vs veh, SH3YL1 / RFU, ZEB2 / Fold change vs veh, ZEB2 / RFU, NRIP1 / Fold change vs veh, NRIP1 / RFU, PTTG1IP / Fold change vs veh, PTTG1IP / RFU, CAPN2 / Fold change vs veh, CAPN2 / RFU, MED14 / Fold change vs veh, MED14 / RFU, SNORA58 / Fold change vs veh, SNORA58 / RFU, C1orf63 / Fold change vs veh, C1orf63 / RFU, LRRFIP1 / Fold change vs veh, LRRFIP1 / RFU, NDUFAF7 / Fold change vs veh, NDUFAF7 / RFU, SLC12A2 / Fold change vs veh, SLC12A2 / RFU, IBTK / Fold change vs veh, IBTK / RFU, ESF1 / Fold change vs veh, ESF1 / Fold change vs veh, TMEM50B / RFU, TAOK1 / Fold change vs veh, TAOK1 / RFU, ACBD3 / Fold change vs veh, ACBD3 / RFU, TMA16 / Fold change vs veh, TMA16 / RFU, RWDD3 / Fold change vs veh, RWDD3 / RFU, BCAT1 / Fold change vs veh, BCAT1 / RFU, EDEM3 / Fold change vs veh, EDEM3 / RFU, TMEM33 / Fold change vs veh, TMEM33 / RFU, WDR75 / Fold change vs veh, WDR75 / RFU, AHCTF1 / Fold change vs veh, AHCTF1 / RFU, TFRC / Fold change vs veh, TFRC / RFU, ZDHHC17 / Fold change vs veh, ZDHHC17 / RFU, NOM1 / Fold change vs veh, NOM1 / RFU, ARL8B / Fold change vs veh, ARL8B / RFU, ZBTB11 / Fold change vs veh, ZBTB11 / RFU, TAMM41 / Fold change vs veh, TAMM41 / RFU, KIAA1704 /// LOC100996395 / Fold change vs veh, KIAA1704 /// LOC100996395 / RFU, ING1 / Fold change vs veh, ING1 / RFU, TRMT61B / Fold change vs veh, TRMT61B / RFU, FUBP3 / Fold change vs veh, FUBP3 / RFU, TP53 / Fold change vs veh, TP53 / RFU, TNKS2 / Fold change vs veh, TNKS2 / RFU, ZFP14 / Fold change vs veh, ZFP14 / RFU, ACTR2 / Fold change vs veh, ACTR2 / RFU, PPP3R1 / Fold change vs veh, PPP3R1 / RFU, PIK3R1 / Fold change vs veh, PIK3R1 / RFU, HNRNPA1 / Fold change vs veh, HNRNPA1 / RFU, RNF170 / Fold change vs veh, RNF170 / RFU, ZNF28 / Fold change vs veh, ZNF28 / RFU, RNGTT / Fold change vs veh, RNGTT / RFU, OGT / Fold change vs veh, OGT / RFU, BRD1 / Fold change vs veh, BRD1 / RFU, MARS / Fold change vs veh, MARS / RFU, ZNF655 / Fold change vs veh, ZNF655 / RFU, FAHD1 / Fold change vs veh, FAHD1 / RFU, BDP1 / Fold change vs veh, BDP1 / RFU, LRRCC1 / Fold change vs veh, LRRCC1 / RFU, ARID1A / Fold change vs veh, ARID1A / RFU, ZNF146 / Fold change vs veh, ZNF146 / RFU, ZNF330 / Fold change vs veh, ZNF330 / RFU, GPN3 / Fold change vs veh, GPN3 / RFU, C9orf123 / Fold change vs veh, C9orf123 / RFU, N4BP2L2 / Fold change vs veh, N4BP2L2 / RFU, ARFIP1 / Fold change vs veh, ARFIP1 / RFU, FAM179B / Fold change vs veh, FAM179B / RFU, BCL10 / Fold change vs veh, BCL10 / RFU, UHRF1BP1L / Fold change vs veh, UHRF1BP1L / RFU, BET1 / Fold change vs veh, BET1 / RFU, CNOT2 / Fold change vs veh, CNOT2 / RFU, ZNF268 / Fold change vs veh, ZNF268 / Fold change vs veh, ZNF507 / RFU, DGCR2 / Fold change vs veh, DGCR2 / RFU, WDSUB1 / Fold change vs veh, WDSUB1 / Fold change vs veh, HSP90B1 /// MIR3652 / RFU, ADSS / Fold change vs veh, ADSS / RFU, GK / Fold change vs veh, GK / RFU, ZNF148 / Fold change vs veh, ZNF148 / RFU, TAF9 / Fold change vs veh, TAF9 / RFU, SLC1A5 / Fold change vs veh, SLC1A5 / RFU, SLMO2 / Fold change vs veh, SLMO2 / RFU, ABCC4 / Fold change vs veh, ABCC4 / RFU, LOC101060439 /// RAP1B / Fold change vs veh, LOC101060439 /// RAP1B / RFU, RFX7 / Fold change vs veh, RFX7 / RFU, GTPBP10 / Fold change vs veh, GTPBP10 / RFU, CNEP1R1 / Fold change vs veh, CNEP1R1 / RFU, BIVM-ERCC5 /// ERCC5 / Fold change vs veh, BIVM-ERCC5 /// ERCC5 / RFU, ILF3 / Fold change vs veh, ILF3 / RFU 11762660_at / Fold change /veh 11762660_at / RFU VCAN (11757783_s_at) / Fold change /veh VCAN (11757783_s_at) / RFU DDX43 (11728927_at) / Fold change /veh DDX43 (11728927_at) / RFU KRT8 (11758188_x_at) / Fold change /veh KRT8 (11758188_x_at) / RFU NKD1 (11759106_at) / Fold change /veh NKD1 (11759106_at) / RFU SRD5A1 (11742802_a_at) / Fold change /veh SRD5A1 (11742802_a_at) / RFU TPSAB1 /// TPSB2 (11721975_s_at) / Fold change /veh TPSAB1 /// TPSB2 (11721975_s_at) / RFU GSTM3 (11746129_a_at) / Fold change /veh GSTM3 (11746129_a_at) / RFU IL23R (11737362_x_at) / Fold change /veh IL23R (11737362_x_at) / RFU TMEM51 (11727254_a_at) / Fold change /veh TMEM51 (11727254_a_at) / RFU PIWIL2 (11732686_x_at) / Fold change /veh PIWIL2 (11732686_x_at) / RFU ORM1 (11744905_x_at) / Fold change /veh ORM1 (11744905_x_at) / RFU CCDC152 (11743942_at) / Fold change /veh CCDC152 (11743942_at) / RFU ECM1 (11717891_a_at) / Fold change /veh ECM1 (11717891_a_at) / RFU IL23R (11748794_a_at) / Fold change /veh IL23R (11748794_a_at) / RFU TNFAIP8L3 (11732012_x_at) / Fold change /veh TNFAIP8L3 (11732012_x_at) / RFU MBOAT4 (11741988_at) / Fold change /veh MBOAT4 (11741988_at) / RFU 11764193_at / Fold change /veh 11764193_at / RFU TMEM53 (11763286_at) / Fold change /veh TMEM53 (11763286_at) / RFU MAGEB2 (11727129_at) / Fold change /veh MAGEB2 (11727129_at) / RFU TMEM200A (11744735_a_at) / Fold change /veh TMEM200A (11744735_a_at) / RFU CCDC152 (11751479_a_at) / Fold change /veh CCDC152 (11751479_a_at) / RFU FAM211A (11726209_a_at) / Fold change /veh FAM211A (11726209_a_at) / RFU RGS16 (11746705_a_at) / Fold change /veh RGS16 (11746705_a_at) / RFU VCAN (11755009_s_at) / Fold change /veh VCAN (11755009_s_at) / RFU RHOB (11743442_s_at) / Fold change /veh RHOB (11743442_s_at) / RFU RGS16 (11720943_a_at) / Fold change /veh RGS16 (11720943_a_at) / RFU RGS16 (11720944_at) / Fold change /veh RGS16 (11720944_at) / RFU, VPS4B / Fold change vs veh, VPS4B / RFU, CREB1 / Fold change vs veh, CREB1 / RFU, DNAJC13 / Fold change vs veh, DNAJC13 / RFU, GNAQ / Fold change vs veh, GNAQ / RFU, CDK5R1 / Fold change vs veh, CDK5R1 / RFU, ZRANB3 / Fold change vs veh, ZRANB3 / RFU, CUL4A / Fold change vs veh, CUL4A / RFU, CCNY / Fold change vs veh, CCNY / RFU, UFL1 / Fold change vs veh, UFL1 / RFU, COG3 / Fold change vs veh, COG3 / RFU, DIAPH2 / Fold change vs veh, DIAPH2 / RFU, SKA2 / Fold change vs veh, SKA2 / RFU, AFF3 / Fold change vs veh, AFF3 / RFU, LMF1 / Fold change vs veh, LMF1 / RFU, IPO11 / Fold change vs veh, IPO11 / RFU, DFFB / Fold change vs veh, DFFB / RFU, FOXP1 / Fold change vs veh, FOXP1 / RFU, CARD8 / Fold change vs veh, CARD8 / RFU, STRN3 / Fold change vs veh, STRN3 / RFU, ADK / Fold change vs veh, ADK / RFU, RASSF2 / Fold change vs veh, RASSF2 / RFU, WIPF1 / Fold change vs veh, WIPF1 / RFU, LARP1B / Fold change vs veh, LARP1B / RFU, RASA1 / Fold change vs veh, RASA1 / RFU, RB1 / Fold change vs veh, RB1 / RFU, PPFIA1 / Fold change vs veh, PPFIA1 / RFU, MAT2A / Fold change vs veh, MAT2A / RFU, CCT5 / Fold change vs veh, CCT5 / RFU, WDR92 / Fold change vs veh, WDR92 / RFU, CUX1 / Fold change vs veh, CUX1 / RFU, TTC7A / Fold change vs veh, TTC7A / RFU, TMEM135 / Fold change vs veh, TMEM135 / RFU, DEPTOR / Fold change vs veh, DEPTOR / RFU, CPM / Fold change vs veh, CPM / RFU, DNAJB6 / Fold change vs veh, DNAJB6 / RFU, CACNA2D3 / Fold change vs veh, CACNA2D3 / RFU, DTX4 / Fold change vs veh, DTX4 / RFU, TFCP2 / Fold change vs veh, TFCP2 / RFU, GMCL1 /// GMCL1P1 / Fold change vs veh, GMCL1 /// GMCL1P1 / RFU, AEBP2 / Fold change vs veh, AEBP2 / RFU, SNHG1 /// SNORD22 /// SNORD25 /// SNORD26 /// SNORD27 /// SNORD28 /// SNORD29 /// SNORD31 / Fold change vs veh, SNHG1 /// SNORD22 /// SNORD25 /// SNORD26 /// SNORD27 /// SNORD28 /// SNORD29 /// SNORD31 / Fold change (Aza/veh), C12orf56 (ProbeSet 11735607_a_at) / Fold change (ACY-1035/veh), C12orf56 (ProbeSet 11735607_a_at) / Fold change (Aza/veh), FGFR1OP (ProbeSet 11751329_s_at) / Fold change (ACY-1035/veh), FGFR1OP (ProbeSet 11751329_s_at) / Fold change (Aza/veh), VPS36 (ProbeSet 11739960_a_at) / Fold change (ACY-1035/veh), VPS36 (ProbeSet 11739960_a_at) / RFU SYPL1 (11715823_x_at) / Fold change /veh SYPL1 (11715823_x_at) / RFU IGFBP7 (11715501_s_at) / Fold change /veh IGFBP7 (11715501_s_at) / RFU REEP3 (11722064_at) / Fold change /veh REEP3 (11722064_at) / RFU IGLL1 (11728026_x_at) / Fold change /veh IGLL1 (11728026_x_at): dose or concentration left out as unconfirmed
Conditions: ProbeSet 11738335_x_at; LIST B

## Nc1ccc(-c2cccs2)cc1NC(=O)c1ccc2c(c1)cc(C1CC1)n2CCN1CCOCC1 [ACY-1035]
  Fold change vs veh, TP53: 0.84
